Experimental data as given in patent US12691111B2, “SETD2 inhibitors and related methods and uses, including combination therapies” (EPIZYME, INC., priority 2020, dated 2026).

What was measured:
KMS-11 = assay: 7-day co-treatment combination study, CellTiter-Glo, Loewe Volume; settings: for Combination effect (Loewe Volume class) of Cpd. No. 15 with combination partner: KMS-11 multiple myeloma cells, 7-day co-treatment with Cpd. No. 15
RPMI-8226 = assay: as above; type: cell-based; settings: RPMI-8226 multiple myeloma cells, 7-day co-treatment with Cpd. No. 15
Description: (§1) Multiple myeloma (MM) and mantle cell lymphoma (MCL) Cell line cultures in log-linear growth rate were treated with combinations of Cpd. No. 15 and combination partners according to a co-treatment model. […] No. 15 and the combination partner. […] Each combination was tested in quadruplicate wells. The final concentration of DMSO (vehicle) in the assay was 0.1% v/v. Fifty microliters of cell line suspension were directly dispensed to the assay-ready plates with an automated multichannel dispenser on to 384-well assay-ready plates. Assay plates were incubated for seven days in a humidified atmosphere of 5% CO2 at 37° C. Quantification of the effect of single agents or combinations on cell viability was performed through measurement of cellular adenosine triphosphate (ATP) using a CellTiter-Glo® (Promega, MadisonWIs.) Luminescent Cell Viability Assay. Luminescence was detected using a SpectraMax M5 microplate reader (Molecular Devices, Sunnyvale, CA). Concentration response plots were generated in GraphPad Prism version 7.0 for Windows, GraphPad Software, (La Jolla, CA) and curves fitted to a four-parameter logistic model with variable slope. Percent of inhibition was calculated at each treatment concentration.
(§2) The results of these combinations are summarized in Tables A and B (multiple myeloma cell lines), and Tables C and D (mantle cell lymphoma cell lines).

MM1.S = assay: as above; type: cell-based; settings: MM1.S multiple myeloma cells, 7-day co-treatment with Cpd. No. 15
Description: as §1, §2

NCI-H929 = assay: as above; type: cell-based; settings: NCI-H929 multiple myeloma cells, 7-day co-treatment with Cpd. No. 15
Description: as §1, §2

KMS-28-BM = assay: as above; type: cell-based; settings: KMS-28-BM multiple myeloma cells, 7-day co-treatment with Cpd. No. 15
Description: as §1, §2

KMS34 = assay: as above; type: cell-based; settings: KMS34 multiple myeloma cells, 7-day co-treatment with Cpd. No. 15
Description: as §1, §2

L363 = assay: as above; type: cell-based; settings: L363 multiple myeloma cells, 7-day co-treatment with Cpd. No. 15
Description: as §1, §2

SUDHL-6 = assay: Pre-treatment model combination study (4 days pre-treatment, 3 days co-treatment), CellTiter-Glo, Loewe Volume; type: cell-based; settings: SUDHL-6 diffuse large B-cell lymphoma cells, 4 days Cpd. No. 15 pre-treatment then 3 days co-treatment
Description: (§3) Diffuse large B-cell lymphoma cells were seeded into flasks and pre-treated with several concentrations of Cpd. No. 15 or DMSO. Cells were then split adjusted to initial density, replated and co-treated Cpd. No. 15 and a second agent of interest using the HP D300 digital dispenser (Tecan Group, Mannedorf, Switzerland) in tissue culture treated solid white 384-well plates for additional 3 days. […] After 3 days cotreatment, cell viability was measured via ATP content using CellTiter-Glo® (Promega, Madison, WI) and luminescence was detected using a SpectraMax M5 microplate reader (Molecular Devices, Sunnyvale, CA).
(§4) Diffuse large B-cell lymphoma (DLBCL) cell line cultures in log-linear growth rate were treated with combinations of Cpd. No. 15 and combination partners according to a pre-treatment model. Cells were seeded first into 8 flasks and pre-treated with 7 different concentrations of Cpd. […] Cells were harvested from each flask and re-seeded onto the corresponding 384-well plate with the same concentration of Cpd. No. 15. and 9 concentrations of its combination partner in triplicate wells. The final concentration of DMSO (vehicle) in the assay was 0.1% v/v. Fifty microliters of cell line(s) suspension were directly dispensed to the assay-ready plates with an automated multichannel dispenser on to 384-well assay-ready plates. Assay plates were incubated for three days in a humidified atmosphere of 5% CO2 at 37° C. Quantification of the effect of single agents or combinations on cell viability was performed through measurement of cellular adenosine triphosphate (ATP) using CellTiter-Glo® (Promega, Madison, WI). Luminescence was detected using a SpectraMax M5 microplate reader (Molecular Devices, Sunnyvale, CA). Concentration response plots were generated in GraphPad Prism version 8.0 for Windows, GraphPad Software, (La Jolla, CA) and curves fitted to a four-parameter logistic model with variable slope. Percent of inhibition was calculated at each treatment concentration.

SUDHL-2 = assay: as above; type: cell-based; settings: SUDHL-2 diffuse large B-cell lymphoma cells, 4 days Cpd. No. 15 pre-treatment then 3 days co-treatment
Description: as §3, §4

WSUDLCL2 = assay: as above; type: cell-based; settings: WSUDLCL2 diffuse large B-cell lymphoma cells, 4 days Cpd. No. 15 pre-treatment then 3 days co-treatment
Description: as §3, §4

KARPAS422 = assay: as above; type: cell-based; settings: KARPAS422 diffuse large B-cell lymphoma cells, 4 days Cpd. No. 15 pre-treatment then 3 days co-treatment
Description: as §3, §4

MINO = assay: 7-day co-treatment combination study, CellTiter-Glo, Loewe Volume; type: cell-based; settings: MINO mantle cell lymphoma cells, 7-day co-treatment with Cpd. No. 15
Description: as §1, §2

GRANTA519 = assay: as above; type: cell-based; settings: GRANTA519 mantle cell lymphoma cells, 7-day co-treatment with Cpd. No. 15
Description: as §1, §2

MAVER1 = assay: as above; type: cell-based; settings: MAVER1 mantle cell lymphoma cells, 7-day co-treatment with Cpd. No. 15
Description: as §1, §2

JVM2 = assay: as above; type: cell-based; settings: JVM2 mantle cell lymphoma cells, 7-day co-treatment with Cpd. No. 15
Description: as §1, §2

REC1 = assay: as above; type: cell-based; settings: REC1 mantle cell lymphoma cells, 7-day co-treatment with Cpd. No. 15
Description: as §1, §2

JEKO1 = assay: as above; type: cell-based; settings: JEKO1 mantle cell lymphoma cells, 7-day co-treatment with Cpd. No. 15
Description: as §1, §2

Z138 = assay: as above; type: cell-based; settings: Z138 mantle cell lymphoma cells, 7-day co-treatment with Cpd. No. 15
Description: as §1, §2

Row | SMILES | Combination effect (Loewe Volume class) of Cpd. No. 15 with combination partner (KMS-11) | Combination effect (Loewe Volume class) of Cpd. No. 15 with combination partner (RPMI-8226) | Combination effect (Loewe Volume class) of Cpd. No. 15 with combination partner (MM1.S) | Combination effect (Loewe Volume class) of Cpd. No. 15 with combination partner (NCI-H929) | Combination effect (Loewe Volume class) of Cpd. No. 15 with combination partner (KMS-28-BM) | Combination effect (Loewe Volume class) of Cpd. No. 15 with combination partner (KMS34) | Combination effect (Loewe Volume class) of Cpd. No. 15 with combination partner (L363) | further results
1 | Cc1nc2cccc(N)c2c(=O)n1C1CCC(=O)NC1=O (centres unmarked) [CC-122] | Synergy (VLoewe>1: synergy) | Additivity (between 1 and −1: additivity) | Additivity (between 1 and −1: additivity) | Synergy (VLoewe>1: synergy) | Additivity (between 1 and −1: additivity) | Synergy (VLoewe>1: synergy) | Additivity (between 1 and −1: additivity) | 
2 | CC(=O)N1CCN([C@H]2CCC[C@@H](NC(=O)c3cc4c(F)ccc(C)c4[nH]3)C2)CC1 [Cpd. No. 15, N-((1R,3S)-3-(4-acetylpiperazin-1-yl)cyclohexyl)-4-fluoro-7-methyl-1H-indole-2-carboxamide] |  |  |  |  |  |  |  | anti-proliferative activity of Cpd. No. 15 combined with pomalidomide (KMS-11; KMS-11 cells, 7-day co-treatment study, combined with pomalidomide (FIG. 3)): synergistic
3 | C[C@@H]1C[C@H]2[C@@H]3CCC4=CC(=O)C=C[C@]4(C)[C@@]3(F)[C@@H](O)C[C@]2(C)[C@@]1(O)C(=O)CO [Dexamethasone, dexamethasone] | Synergy (VLoewe>1: synergy) | Synergy (VLoewe>1: synergy) | Additivity (between 1 and −1: additivity) | Synergy (VLoewe>1: synergy) | Additivity (between 1 and −1: additivity) | Synergy (VLoewe>1: synergy) | Synergy (VLoewe>1: synergy) | 
4 | CCN(c1cc(C#CCN2CCOCC2)cc(C(=O)NCc2c(C)cc(C)[nH]c2=O)c1C)[C@H]1CC[C@H](N(C)CCOC)CC1 [EPZ-11989] | Additivity (between 1 and −1: additivity) |  |  | No Effect | Additivity (between 1 and −1: additivity) |  |  | 
5 | Cc1[nH]c2ccccc2c1CCNCc1ccc(/C=C/C(=O)NO)cc1 [Panobinostat, panobinostat] | Additivity (between 1 and −1: additivity) | Additivity (between 1 and −1: additivity) | Additivity (between 1 and −1: additivity) | Synergy (VLoewe>1: synergy) | Additivity (between 1 and −1: additivity) | Synergy (VLoewe>1: synergy) | Additivity (between 1 and −1: additivity) | 
6 | Nc1cccc2c1C(=O)N(C1CCC(=O)NC1=O)C2=O (centres unmarked) [Pomalidomide, pomalidomide] | Synergy (VLoewe>1: synergy) | Synergy (VLoewe>1: synergy) | Additivity (between 1 and −1: additivity) | Synergy (VLoewe>1: synergy) | Additivity (between 1 and −1: additivity) | Synergy (VLoewe>1: synergy) | Additivity (between 1 and −1: additivity) | 
7 | C[C@]12C=CC(=O)C=C1CC[C@@H]1[C@@H]2[C@@H](O)C[C@@]2(C)[C@H]1CC[C@]2(O)C(=O)CO [Prednisolone, prednisolone] |  |  |  |  |  |  |  | Combination effect (Loewe Volume class) of Cpd. No. 15 with combination partner (SUDHL-6): Synergy (VLoewe>1: synergy); Combination effect (Loewe Volume class) of Cpd. No. 15 with combination partner (SUDHL-2): Synergy (VLoewe>1: synergy); Combination effect (Loewe Volume class) of Cpd. No. 15 with combination partner (WSUDLCL2): Antagonism (<−1: antagonistic); Combination effect (Loewe Volume class) of Cpd. No. 15 with combination partner (KARPAS422): Additivity (between 1 and −1: additivity); Combination effect (Loewe Volume class) of Cpd. No. 15 with combination partner (MINO): Additivity (between 1 and −1: additivity); Combination effect (Loewe Volume class) of Cpd. No. 15 with combination partner (GRANTA519): Synergy (VLoewe>1: synergy); Combination effect (Loewe Volume class) of Cpd. No. 15 with combination partner (MAVER1): Synergy (VLoewe>1: synergy); Combination effect (Loewe Volume class) of Cpd. No. 15 with combination partner (JVM2): Additivity (between 1 and −1: additivity); Combination effect (Loewe Volume class) of Cpd. No. 15 with combination partner (REC1): Synergy (VLoewe>1: synergy); Combination effect (Loewe Volume class) of Cpd. No. 15 with combination partner (JEKO1): Additivity (between 1 and −1: additivity); Combination effect (Loewe Volume class) of Cpd. No. 15 with combination partner (Z138): Additivity (between 1 and −1: additivity)
8 | O=C(/C=C\n1cnc(-c2cc(C(F)(F)F)cc(C(F)(F)F)c2)n1)NNc1cnccn1 [Selinexor, selinexor] | Additivity (between 1 and −1: additivity) | Additivity (between 1 and −1: additivity) | Additivity (between 1 and −1: additivity) | Synergy (VLoewe>1: synergy) | Additivity (between 1 and −1: additivity) | Synergy (VLoewe>1: synergy) | Additivity (between 1 and −1: additivity) | 
